Data reported in US6881418B2, “Liquid deodorant killing microorganism and method of microorganism-killing deodorization” (K.I Chemical Industry Co., Ltd., priority 2001, dated 2005).

Columns and labels:
[1] = system: Escherichia genus microbes; assay: Test of fast-acting microbicidal efficacy (viable cell count against contact time); type: cell-based; conditions: pH 8
Method: Escherichia genus microbes, which were subjected to cell washing, were diluted with phosphate/citrate buffer solution (pH 8) to a concentration of approximately 10^6 CFU/ml, and 1 L each of the prepared solution was poured into glass beakers. Example 1 or 8, and the powdered substance of Compound A1 were each added thereto so as to bring to a prescribed concentration (indicated based on active ingredient), respectively, and the mixtures were stirred for 90 minutes. A portion of each mixture was taken at 5, 10, 30, and 90 minutes and was diluted with sterilized water. Then, the diluted mixture was inoculated onto a nutrient plate agar medium and cultured in an incubator at 30° C. for 3 days. Then, viable cells therein were counted. The results are shown in Tables 6 and 7 in the unit of CFU/ml. Tables 6 and 7 indicate the results obtained by conducting the tests over two separate occasions under the above conditions.

[2] = Test of sustainability of deodorant effect against active sludge (gas detector tubes); conditions: gas phase over 40% sludge suspension, ND = equal to or lower than detection limit
Method: Active sludge (dehydrated cake, water content 70%) obtained from a sewage treatment plant was used for tests on the deodorant effect. The obtained active sludge was suspended with distilled water to form a 40% suspension. Example 9, Comparative Example 2, or powdered Compound A2 was then added to the suspension in a prescribed amount (indicated based on active ingredient) and stirred. 200 g of each suspension containing Example 9, Comparative Example 2, or powdered Compound A2 was transferred to a 1-liter Erlenmeyer flask, and the flask was sealed with a rubber stopper provided with 2 glass pipes each having a rubber tube and a pinchcock. […] The measurement of each gas component was conducted by inserting a gas detector tube into one of the rubber tubes with both pinchcocks open. Used herein were a gas detector 3L (GASTEC CORPORATION) for ammonia, a gas detector 3L (GASTEC CORPORATION) for hydrogen sulfide, and a gas detector 71 (GASTEC CORPORATION) for methyl mercaptan.

[3] = 10 ppm active ingredient, 1 hour later
[4] = 10 ppm active ingredient, 2 hours later
[5] = 20 ppm active ingredient, 1 hour later
[6] = 20 ppm active ingredient, 2 hours later
[7] = 40 ppm active ingredient, 1 hour later
[8] = 40 ppm active ingredient, 2 hours later
[9] = 80 ppm active ingredient, 2 hours later

For `CC1(C)C(=O)N(Br)C(=O)N1Br` [Compound A1, 1,3-dibromo-5,5-dimethylhydantoin], the viable cells ([1]; 0.25 ppm active ingredient, contact time 5 min, Table 6) was 3.0 × 10^6 CFU/ml, the viable cells ([1]; 0.25 ppm active ingredient, contact time 5 min, Table 7) was 5.6 × 10^6 CFU/ml and the viable cells ([1]; 0.25 ppm active ingredient, contact time 10 min, Table 6) was 3.1 × 10^6 CFU/ml. For the same compound, the viable cells ([1]; 0.25 ppm active ingredient, contact time 10 min, Table 7) was 5.1 × 10^6 CFU/ml, the viable cells ([1]; 0.25 ppm active ingredient, contact time 30 min, Table 6) was 4.5 × 10^5 CFU/ml and the viable cells ([1]; 0.25 ppm active ingredient, contact time 30 min, Table 7) was 3.7 × 10^5 CFU/ml. For the same compound, the viable cells ([1]; 0.25 ppm active ingredient, contact time 90 min, Table 6) was 3.7 × 10^5 CFU/ml, the viable cells ([1]; 0.25 ppm active ingredient, contact time 90 min, Table 7) was 2.7 × 10^5 CFU/ml and the viable cells ([1]; 0.5 ppm active ingredient, contact time 5 min, Table 6) was 3.0 × 10^6 CFU/ml. For the same compound, the viable cells ([1]; 0.5 ppm active ingredient, contact time 5 min, Table 7) was 5.0 × 10^6 CFU/ml, the viable cells ([1]; 0.5 ppm active ingredient, contact time 10 min, Table 6) was 7.7 × 10^5 CFU/ml and the viable cells ([1]; 0.5 ppm active ingredient, contact time 10 min, Table 7) was 6.7 × 10^5 CFU/ml. For the same compound, the viable cells ([1]; 0.5 ppm active ingredient, contact time 30 min, Table 6) was 8.0 × 10^4 CFU/ml, the viable cells ([1]; 0.5 ppm active ingredient, contact time 30 min, Table 7) was 8.0 × 10^4 CFU/ml and the viable cells ([1]; 0.5 ppm active ingredient, contact time 90 min, Table 6) was <10^2 CFU/ml. For the same compound, the viable cells ([1]; 0.5 ppm active ingredient, contact time 90 min, Table 7) was <10^2 CFU/ml, the viable cells ([1]; 1.0 ppm active ingredient, contact time 5 min, Table 6) was 2.9 × 10^6 CFU/ml and the viable cells ([1]; 1.0 ppm active ingredient, contact time 5 min, Table 7) was 4.8 × 10^6 CFU/ml. The viable cells ([1]; 1.0 ppm active ingredient, contact time 10 min, Table 6) was 2.7 × 10^5 CFU/ml, the viable cells ([1]; 1.0 ppm active ingredient, contact time 10 min, Table 7) was 2.9 × 10^5 CFU/ml and the viable cells ([1]; 1.0 ppm active ingredient, contact time 30 min, Table 6) was 4.0 × 10^3 CFU/ml. For the same compound, the viable cells ([1]; 1.0 ppm active ingredient, contact time 30 min, Table 7) was 8.8 × 10^3 CFU/ml, the viable cells ([1]; 1.0 ppm active ingredient, contact time 90 min, Table 6) was <10^2 CFU/ml and the viable cells ([1]; 1.0 ppm active ingredient, contact time 90 min, Table 7) was <10^2 CFU/ml. The viable cells ([1]; 1.5 ppm active ingredient, contact time 5 min, Table 6) was 3.3 × 10^6 CFU/ml, the viable cells ([1]; 1.5 ppm active ingredient, contact time 5 min, Table 7) was 4.3 × 10^6 CFU/ml and the viable cells ([1]; 1.5 ppm active ingredient, contact time 10 min, Table 6) was 5.0 × 10^4 CFU/ml. The viable cells ([1]; 1.5 ppm active ingredient, contact time 10 min, Table 7) was 3.0 × 10^4 CFU/ml, the viable cells ([1]; 1.5 ppm active ingredient, contact time 30 min, Table 6) was 2.0 × 10^2 CFU/ml and the viable cells ([1]; 1.5 ppm active ingredient, contact time 30 min, Table 7) was <10^2 CFU/ml. The viable cells ([1]; 1.5 ppm active ingredient, contact time 90 min, Table 6) was <10^2 CFU/ml, the viable cells ([1]; 1.5 ppm active ingredient, contact time 90 min, Table 7) was <10^2 CFU/ml and the viable cells ([1]; 2.0 ppm active ingredient, contact time 5 min, Table 6) was 1.0 × 10^5 CFU/ml. The viable cells ([1]; 2.0 ppm active ingredient, contact time 5 min, Table 7) was 3.2 × 10^5 CFU/ml, the viable cells ([1]; 2.0 ppm active ingredient, contact time 10 min, Table 6) was 2.0 × 10^4 CFU/ml and the viable cells ([1]; 2.0 ppm active ingredient, contact time 10 min, Table 7) was 1.2 × 10^4 CFU/ml. For the same compound, the viable cells ([1]; 2.0 ppm active ingredient, contact time 30 min, Table 6) was <10^2 CFU/ml, the viable cells ([1]; 2.0 ppm active ingredient, contact time 30 min, Table 7) was <10^2 CFU/ml and the viable cells ([1]; 2.0 ppm active ingredient, contact time 90 min, Table 6) was <10^2 CFU/ml. For the same compound, the viable cells ([1]; 2.0 ppm active ingredient, contact time 90 min, Table 7) was <10^2 CFU/ml.

For `CC1(C)C(=O)N(Cl)C(=O)N1Br` [Compound A2, 1-bromo-3-chloro-5,5-dimethylhydantoin], the “Volume of Ammonia” value [2, 3] was 40 ppm, the “Volume of Hydrogen sulfide” value [2, 3] was 5.0 ppm and the “Volume of Methyl mercaptan” value [2, 3] was 10 ppm. The “Volume of Ammonia” value [2, 4] was 40 ppm, the “Volume of Hydrogen sulfide” value [2, 4] was 5.0 ppm and the “Volume of Methyl mercaptan” value [2, 4] was 10 ppm. The “Volume of Ammonia” value [2, 5] was 40 ppm, the “Volume of Hydrogen sulfide” value [2, 5] was 5.0 ppm and the “Volume of Methyl mercaptan” value [2, 5] was 10 ppm. The “Volume of Ammonia” value [2, 6] was 40 ppm, the “Volume of Hydrogen sulfide” value [2, 6] was 5.0 ppm and the “Volume of Methyl mercaptan” value [2, 6] was 10 ppm. The “Volume of Ammonia” value [2, 7] was 10 ppm, the “Volume of Hydrogen sulfide” value [2, 7] was 2.5 ppm and the “Volume of Methyl mercaptan” value [2, 7] was 0.5 ppm. For the same compound, the “Volume of Ammonia” value [2, 8] was 40 ppm, the “Volume of Hydrogen sulfide” value [2, 8] was 5.0 ppm and the “Volume of Methyl mercaptan” value [2, 8] was 10 ppm. For the same compound, the “Volume of Ammonia” value [2, 9] was 20 ppm, the “Volume of Hydrogen sulfide” value [2, 9] was 5.0 ppm and the “Volume of Methyl mercaptan” value [2, 9] was 5.0 ppm.
